Key:
[1] = tested on: metabolism of retinoic acid in human breast cancer cells; experiment: Inhibition of retinoic acid (RA) metabolism (Example C.1); format: cell-based; details: MCF-7 human breast cancer cells, 3H-RA as substrate, concentration needed to reduce the amount of metabolites to 50% of the control
Method in brief: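 MCF-7 cells, pre-stimulated with RA the day before, incubated with ³H-RA substrate and test compound in 1% DMSO. Polar ³H-metabolites separated from unmetabolized RA and counted by scintillation. IC50 is the concentration cutting metabolite formation to 50% of control, with blank run alongside.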

Ovariectomized rats = experiment: Vaginal keratinization test on ovariectomized rats (Example C.2); format: in vivo; details: estradiol undecylate induced keratinization, per os once daily on days 1-3, active dose = 50% of rats show complete suppression; for minimal effective dose: Rattus norvegicus, po, read-out: LAD (lowest active dose)
Method in brief: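 Ovariectomized rats given s.c. estradiol undecylate (100 μg per 100 g body weight in sesame oil), then oral compound once daily on days 1-3 (vehicle PEG 200). Vaginas assessed histologically one day after last dose; lowest active dose (mg/kg) is the dose giving complete keratinization suppression in 50% of rats.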

SMILES	IC50 [1] [nM]	IC50 ([1]; MCF7) [nM]	LAD (lowest active dose) (Ovariectomized rats) [mg/kg]	minimal effective dose (Ovariectomized rats) [mg/kg]
C/C(=C\c1ccsc1)C(=O)Nc1ccc(C(C(C)C)n2ccnc2)cc1 (racemic) [Compound 596]	7.92		10.00	
C/C(=C\c1ccc2[nH]c(=O)ccc2c1)C(=O)Nc1ccc(C(C(C)C)n2ccnc2)cc1 (racemic) [Compound 598]	23.9		>10.00	
C/C(=C\c1ccc(C)o1)C(=O)Nc1ccc(C(C(C)C)n2ccnc2)cc1 (racemic) [Compound 601]	20		10.00	
C/C(=C\c1ccc2nnn(C)c2c1)C(=O)Nc1ccc(C(C(C)C)n2ccnc2)cc1 (racemic) [Compound 602]	25.7		>10.00	
C/C(=C\c1cc(=O)[nH]c2ccccc12)C(=O)Nc1ccc(C(C(C)C)n2ccnc2)cc1 (racemic) [Compound 603]	> 100		>10.00	
CC(=Cc1cccn1C)C(=O)Nc1ccc(C(C(C)C)n2ccnc2)cc1 (racemic) [Compound 605]	14		>10.00	
CCOc1c(F)c(F)c(/C=C(\C)C(=O)Nc2ccc(C(C(C)C)n3ccnc3)cc2)c(F)c1F (racemic) [Compound 606]	13.6		>10.00	
C/C(=C\c1ccc(F)c(Br)c1)C(=O)Nc1ccc(C(C(C)C)n2ccnc2)cc1 (racemic) [Compound 608]	6.61		>10.00	
C/C(=C\c1ccc(C(F)(F)F)cc1F)C(=O)Nc1ccc(C(C(C)C)n2ccnc2)cc1 (racemic) [Compound 609]	10.9		10.00	
C/C(=C\c1ccc(N)cc1)C(=O)Nc1ccc(C(C(C)C)n2ccnc2)cc1 (racemic) [Compound 611, (±)-(E)-2-[(4-aminophenyl)methylene]-N-[4-[1-(1H-imidazol-1-yl)-2-methylpropyl]phenyl]propanamide]		3.42		10
O=C(Cc1ccccc1)Nc1ccc(C(c2cccc(C(F)(F)F)c2)n2cncn2)cc1 (racemic) [Compound 614]	278		>20.00	
O=C(/C=C/c1ccccc1)Nc1ccc(C(c2cccc(F)c2)n2cncn2)cc1 (racemic) [Compound 618]	15.7		>20.00	
O=C(Cc1ccccc1)Nc1ccc(C(c2cccc(F)c2)n2cncn2)cc1 (racemic) [Compound 619]	35.7		>20.00	
CC(C)C(c1ccc(NC(=O)Cc2cccc(Cl)c2)cc1)n1ccnc1 (racemic) [Compound 652]	> 100		10.00	
CC(C)C(c1ccc(NC(=O)C(c2ccccc2)c2ccccc2)cc1)n1ccnc1 (racemic) [Compound 655]	16.1		>10.00	
Cc1ccc(CC(=O)Nc2ccc(C(C(C)C)n3ccnc3)cc2)cc1 (racemic) [Compound 666]	14.5		2.50	
C/C(=C\c1ccccc1)C(=O)Nc1ccc(C(c2cccnc2)C(C)C)cc1 (racemic) [Compound 679]	> 1000		>20.00	
C/C(=C\c1ccccc1)C(=O)Nc1ccc(C(c2ccncc2)C(C)C)cc1 (racemic) [Compound 681]	> 1000		>20.00	
CC(C)C(c1ccc(NC(=O)Cc2ccc(Cl)cc2)cc1)c1cccnc1 (racemic) [Compound 686]	43.1		>10.00	
CC(C)C(c1ccc(NC(=O)Nc2cccc(F)c2)cc1)c1cccnc1 (racemic) [Compound 690]	> 100		>10.00	
CC(C)C(c1ccncc1)c1ccc(NC(=O)Nc2cccc(F)c2)cc1 (racemic) [Compound 692]	38		>10.00	
CNC(=S)Nc1ccc(C(C(C)C)n2ccnc2)cc1 (racemic) [Compound 696]	8.07		>10.00	
CC(C)C(c1ccc(NC(=S)Nc2ccccc2)cc1)n1ccnc1 (racemic) [Compound 697]	17.1		10.00	
CC(C)C(c1ccc(NC(=S)NC(=O)c2ccccc2)cc1)n1ccnc1 (racemic) [Compound 698, (±)-N-benzoyl-N′-[4-[1-(1H-imidazol-1-yl)-2-methylpropyl]phenyl]thiourea]		39.6		20
CC(C)C(c1ccc(NC(=S)Nc2ccccc2F)cc1)n1ccnc1 (racemic) [Compound 700]	12		5.00	
CCOc1ccc(NC(=O)Nc2ccc(C(C(C)C)n3ccnc3)cc2)cc1 (racemic) [Compound 707]	13		5.00	
O=C(Nc1ccc(C(c2cccc(C(F)(F)F)c2)n2cncn2)cc1)Nc1cccc(F)c1 (racemic) [Compound 711]	> 100		5.00	

More lines, in order of falling IC50 [1], values ahead:

IC50 [1] [nM]	IC50 ([1]; MCF7) [nM]	SMILES	LAD (lowest active dose) (Ovariectomized rats) [mg/kg]	minimal effective dose (Ovariectomized rats) [mg/kg]
6.53		C/C(=C\c1ccc([N+](=O)[O-])cc1)C(=O)Nc1ccc(C(C(C)C)n2ccnc2)cc1 (racemic) [Compound 610]	>10.00	
6.36		C/C(=C\c1ccc2nn(C)nc2c1)C(=O)Nc1ccc(C(C(C)C)n2ccnc2)cc1 (racemic) [Compound 599]	>20.00	
5.91		COc1cccc(CC(=O)Nc2ccc(C(C(C)C)n3ccnc3)cc2)c1 (racemic) [Compound 665]	2.50	
5.48		CC(C)C(C(=O)Nc1ccc(C(C(C)C)n2ccnc2)cc1)c1ccccc1 (racemic) [Compound 658]	>10.00	
5		C=C(C)C(=O)Nc1ccc(C(C(C)C)n2ccnc2)cc1 (racemic) [Compound 597]	>10.00	
4.81		C/C(=C\c1ccco1)C(=O)Nc1ccc(C(C(C)C)n2ccnc2)cc1 (racemic) [Compound 594]	>10.00	
4.14		COc1ccc(NC(=O)Nc2ccc(C(C(C)C)n3ccnc3)cc2)cc1 (racemic) [Compound 722]	5.00	
3.83		C/C(=C\c1cccs1)C(=O)Nc1ccc(C(C(C)C)n2ccnc2)cc1 (racemic) [Compound 595]	10.00	
2.89		C/C(=C\c1ccccn1)C(=O)Nc1ccc(C(C(C)C)n2ccnc2)cc1 (racemic) [Compound 604]	>10.00	
2.7		C/C(=C\c1cccc2ccccc12)C(=O)Nc1ccc(C(C(C)C)n2ccnc2)cc1 (racemic) [Compound 593]	>10.00	
2.4		O=C(Nc1ccc(C(c2cccc(C(F)(F)F)c2)n2ccnc2)cc1)Nc1cc(F)ccc1F (racemic) [Compound 709]	5.00	
2.34		CC(C)C(c1ccc(NC(=O)Cc2cccc(C(F)(F)F)c2)cc1)n1ccnc1 (racemic) [Compound 654]	5.00	
1.95		CCOc1ccc(CC(=O)Nc2ccc(C(C(C)C)n3ccnc3)cc2)cc1 (racemic) [Compound 663]	2.50	
1.68		CCCC(C)C(c1ccc(NC(=O)Cc2ccc(OC)c(OC)c2)cc1)n1cncn1 (racemic) [Compound 639]	2.50	
1.61		COc1ccc(NC(=O)Nc2ccc(C(C(C)C)n3ccnc3)cc2)cc1OC (racemic) [Compound 708]	>5.00	
1.57		CC(C)C(c1ccc(NC(=O)Cc2cccc(O)c2)cc1)n1ccnc1 (racemic) [Compound 667]	5.00	
1.38		CC(C)(C)CC(c1ccc(NC(=O)Cc2ccc(Cl)cc2)cc1)n1cncn1 (racemic) [Compound 623]	>5.00	
1.38		CCC(CC)C(c1ccc(NC(=O)Nc2ccccc2F)cc1)n1ccnc1 (racemic) [Compound 713]	2.50	
1.34		CC(C)C(c1ccc(NC(=O)Cc2ccc(F)cc2)cc1)n1ccnc1 (racemic) [Compound 653]	5.00	
1.25		CCC(CC)C(c1ccc(NC(=O)C2Oc3ccccc3O2)cc1)n1cncn1 (racemic) [Compound 621]	1.25	
0.296		CCCC(CCC)C(c1ccc(NC(=O)Cc2ccc(OC)c(OC)c2)cc1)n1cncn1 (racemic) [Compound 644]	2.50	
0.188		CCC(CC)C(c1ccc(NC(=O)Nc2cc(F)ccc2F)cc1)n1ccnc1 (racemic) [Compound 710]	2.50	
0.154		CCC(CC)C(c1ccc(NC(=O)Nc2ccccc2F)cc1)n1cncn1 (racemic) [Compound 715]	>2.50	
0.133		CCC(CC)C(c1ccc(NC(=O)Nc2ccc(OC)c(OC)c2)cc1)n1cncn1 (racemic) [Compound 718]	2.50	
0.0043		CCC(CC)C(c1ccc(NC(=O)Nc2cc(F)ccc2F)cc1)n1cncn1 (racemic) [Compound 712]	5.00	
